Literature values as cited in patent US20090203786A1, “Methods and Composition for Improving Cognitive Function” (priority 2005, published 2009).

Conditions: Connor W E et al. (1990)

CC/C=C\C/C=C\C/C=C\C/C=C\C/C=C\C/C=C\CCC(=O)O [DHA, docosahexaenoic acid]
half-life of DHA in brain (Rhesus monkey brain): 21 days | Cerebral DHA concentration relative to pre-supplementation value (Rhesus monkeys, stabilized after 12 weeks of supplementation): 7 times
